Assay [1] deals with basal gastric acid secretion. The assay is described as follows: Inhibition of gastric acid secretion in the acute gastric fistula rat. The format is in vivo, Female Sprague-Dawley rats. The settings on record: intraduodenal. The protocol:
The compounds of this invention are also useful as inhibitors of gastric acid secretion and peptic ulcer formation and may be used for the treatment of gastric hyperacidity, gastric erosion, and peptic ulcer. Inhibition of basal gastric acid secretion can be determined by the following procedure.
Female Sprague-Dawley rats weighing 140-160 grams are fasted in individual cages for 18-24 hours. The rats are then lightly anesthetized with ether and their front teeth extracted to avoid destruction of the plastic cannula. A midline incision is then made and the stomach and duodenum exposed. A flanged polyvinyl tube is inserted into the fundic portion of the stomach and secured with a purse string suture line using 4-O Mersilene. The rat is then dosed by injection of the compound into the duodenum (1.0 ml. per 100 gram body weight). After dosing, the abdominal wall and skin are closed using metal wound clips. The rat is replaced in a cage containing a longitudinal slit to allow the polyvinyl tube to hang freely. An 8 ml. plastic collecting tube is attached to the flanged cannula and hangs freely below the cage. The first 30 minute sample is discarded designating this time as zero. The collecting tube is attached again and samples removed at the end of 60 and 120 minutes. The hourly samples are then transferred to a 15 ml. centrifuge and centrifuged for 5-10 minutes. Total and sediment volume are then recorded with the supernatant volume being used as volume of secretion. A 1 ml. or less aliquot is then removed and placed in a 50 ml. beaker containing 10 ml. of distilled water. This sample is then titrated using 0.01 N NaOH to pH 7.0 using a Beckman zeromatic pH meter. Volume, titratable acidity (meq/L) and total acid output (ueg/hour) are recorded. Percent inhibition is determined by comparison with the appropriate control. Groups of three rats were used for preliminary testing, and groups of six rats were used for dose-response evaluations. All compounds are administered in a vehicle consisting of 0.5% methocel, 0.4% tween 80, and saline at a constant volume of 1 ml./100 gram rat. Samples are dispersed by sonification. Percent inhibition is calculated on basis of concurrent vehicle control.
In Table B which follows is given the effect on total acid output after 60 minutes (response A) and 120 minutes (response B) for various doses of representative compounds of this invention.

The subject of assay [2] is bronchospasms elicited by intravenous injections of histamine. Nature of the assay: Bronchodilator activity (Konzett assay) against histamine. The format is in vivo, guinea pigs. Particulars: Cavia porcellus; three logarithmic cummulative intravenous doses; spasmogen histamine i.v.; read-out: Bronchodilator Activity (Konzett Assays) ED50, Spasmogenic Agent Histamine. As for the experimental part: (§1) The compounds of this invention are useful as bronchodilators for the treatment of asthma and chronic bronchitis. Bronchodilator activity is determined in guinea pigs against bronchospasms elicited by intravenous injections of 5-hydroxytryptamine, histamine or acetylcholine by the Konzett procedure. [See J. Lulling, P. Lievens, F. El Sayed and J. Prignot, Arzneimittel-Forschung, 18, 955 (1968).]
(§2) In Table A which follows bronchodilator activity for representative compounds of this invention against one or more of three spasmogenic agents is expressed in an ED50 determined from the results obtained with three logarithmic cummulative intravenous doses.

Assay [3] deals with bronchospasms elicited by intravenous injections of 5-hydroxytryptamine. The assay is described as follows: Bronchodilator activity (Konzett assay) against 5-hydroxytryptamine. The format is in vivo, guinea pigs. The settings on record: Cavia porcellus; three logarithmic cummulative intravenous doses; spasmogen 5-hydroxytryptamine i.v.; read-out: Bronchodilator Activity (Konzett Assays) ED50, Spasmogenic Agent 5-Hydroxytryptamine. As for the experimental part:
as §1, §2

Assay [4] relates to Mean arterial blood pressure. The assay is described as follows: Hypotensive activity in anesthetized normotensive rats. In kind it is in vivo, Royalhart, Wistar strain, male. The settings on record: Rattus norvegicus, iv, infused over one minute, read-out: % Decrease Mean Arterial Blood Pressure. As for the experimental part:
The animals used are Royalhart, Wistar strain, male, normotensive rats weighing 250-300 g. The rats are anesthetized using a 100 mg./ml. saline solution of urethane at a rate of 900 mg./kg. intraperitoneally.
The instrumentation used in a Brush model 260 recorder, Statham mode P23Db pressure transducer and Harvard model 940 infusion pump with a 6 cc syringe at speed 4.
The left carotid artery is cannulated with polyethylene tubing for arterial blood pressure. The left external juglar vein is cannulated with polyethylene tubing for […] the test compound is infused over a one minute period in a volume of 0.5 ml., […] (ethanol, 1 M NaHCO3 or saline) and then flushed with 0.4 ml. of saline.
Mean arterial blood pressure is then measured in two test animals per compound against a control value.

Assay [5] deals with bronchospasms elicited by intravenous injections of acetylcholine. The assay is described as follows: Bronchodilator activity (Konzett assay) against acetylcholine. In kind it is in vivo, guinea pigs. The settings on record: Cavia porcellus; three logarithmic cummulative intravenous doses; spasmogen acetylcholine i.v.; read-out: Bronchodilator Activity (Konzett Assays) ED50, Spasmogenic Agent Acetylcholine. As for the experimental part: as §1, §2

Assay [6] relates to basal gastric acid secretion. Nature of the assay: Inhibition of gastric acid secretion in the acute gastric fistula rat. In kind it is in vivo, Female Sprague-Dawley rats. Particulars: oral.

Some results are limits rather than exact numbers.

Experimental findings from patent US4194055A, “15,16-dioxy prostenoic acids and esters” (American Cyanamid Company, priority 1978, dated 1980) are described below.

Consider `CCCCC(OC)C(O)/C=C/C1CCC(=O)C1CCCCCCC(=O)OCC` (mixture of isomers) [all racemic erythro ethyl 9-oxo-15-hydroxy-16-methoxy-13-trans-prostenoate], for which, in assay [1] (10 mg./kg.), the “% Inhibition of Total Acid Output After 60 min.” value amounted to 43% and the “% Inhibition of Total Acid Output After 120 min.” value is listed as 0%.

The ED50 is the midpoint of the dose-response relation. Regarding `CCCCC(O)C(O)/C=C/C1CCC(=O)C1CCCCCCC(=O)O` (mixture of isomers) [all racemic erythro-9-oxo-15,16-dihydroxy-13-trans-prostenoic acid], the ED50 turned out to be 0.01 mg/kg in assay [2] and 0.537 mg/kg in assay [3].

In the case of `CCCCC1OC(C)(C)OC1/C=C/C1C(OC2CCCCO2)CC(=O)C1C/C=C\CCCC(=O)O` (mixture of isomers) [d,l-erythro-9-oxo-11α-tetrahydropyranyloxy-15,16-isopropylidenedioxy-5-cis,13-trans-prostadienoic acid], in assay [1] (10 mg./kg.), the “% Inhibition of Total Acid Output After 60 min.” value is 55% and the “% Inhibition of Total Acid Output After 120 min.” value is on record as 29%.

`CCCCC1OC(C)(C)OC1/C=C/C1CCC(=O)C1CCCCCCC(=O)O` (mixture of isomers) [d,l-erythro-9-oxo-15,16-isopropylidenedioxy-13-trans-prostenoic acid]: the inhibition in vivo at 1.3 mg/kg in assay [4] (1.3 mg./kg.) amounted to 63%. For the same compound, the inhibition in vivo at 2.5 mg/kg in assay [4] (2.5 mg./kg.) worked out at 21%.

As for `CCCCC(O)C(O)CCC1CCC(=O)C1CCCCCCC(=O)O` (racemic) [all racemic erythro-9-oxo-15,16-dihydroxy-prostanoic acid], in assay [1] (10 mg./kg.), the “% Inhibition of Total Acid Output After 60 min.” value was found to be 56% and the “% Inhibition of Total Acid Output After 120 min.” value amounted to 46%.

As for `CCCC[C@H](OC)[C@H](O)/C=C/[C@H]1C=CC(=O)[C@@H]1C/C=C\CCCC(=O)O` (relative stereo) [d1-erythro-9-oxo-15-hydroxy-16-methoxy-5-cis,10,13-trans-prostatrienoic acid], the inhibition in vivo at 1.9 mg/kg in assay [4] came out at 26%.

Regarding `CCCC[C@H](OC)[C@H](O)/C=C/[C@H]1[C@H](O)CC(=O)[C@@H]1C/C=C\CCCC(=O)O` (relative stereo) [d,1-erythro-9-oxo-11α,15-dihydroxy-16-methoxy-5-cis,13-trans-prostadienoic acid], the inhibition in vivo at 1.8 mg/kg in assay [4] (1.8 mg./kg.) was 44%.

For `CCCC[C@H](OC)[C@H](O)/C=C/[C@H]1CCC(=O)[C@@H]1CCCCCCC(=O)O` (relative stereo) [d,1-erythro-9-oxo-15-hydroxy-16-methoxy-13-trans-prostenoic acid], the ED50 is more than 3.2 mg/kg in assay [2] and more than 0.32 mg/kg in assay [5]. Further, in assay [4], the inhibition in vivo at 2.1 mg/kg was 29%.

Regarding `CCCC[C@@H](O)[C@@H](O)/C=C/[C@H]1CCC(=O)[C@@H]1CCCCCCC(=O)OCC` (relative stereo) [d,l-erythro ethyl 9-oxo-15-epi-16-dihydroxy-13-trans-prostenoate], in assay [4], the inhibition in vivo at 2.4 mg/kg was 33%.

Take `CCCC[C@@H](OC)[C@@H](O)/C=C/[C@H]1CCC(=O)[C@@H]1CCCCCCC(=O)OCC` (relative stereo) [d,l-erythro ethyl 9-oxo-15-epi-hydroxy-16-methoxy-13-trans-prostenoate]: in assay [4] (2.3 mg./kg.), the inhibition in vivo at 2.3 mg/kg came to 9%.

For the compound `CCCC[C@H](O)[C@H](O)/C=C/[C@H]1CCC(=O)[C@@H]1CCCCCCC(=O)O` (relative stereo) [d,l-erythro-9-oxo-15,16-dihydroxy-13-trans-prostenoic acid], in assay [1] (2.5 mg./kg.), the “% Inhibition of Total Acid Output After 60 min.” value amounted to 77% and the “% Inhibition of Total Acid Output After 120 min.” value amounted to 76%. The inhibition in vivo at 2.1 mg/kg in assay [4] was 23%.

For `CCCC[C@@H](O)[C@@H](O)/C=C/[C@H]1CCC(=O)[C@@H]1CCCCCCC(=O)O` (relative stereo) [d,l-erythro-9-oxo-15-epi,16-dihydroxy-13-trans-prostenoic acid], in assay [1] (10 mg./kg.), the “% Inhibition of Total Acid Output After 60 min.” value came out at 0% and the “% Inhibition of Total Acid Output After 120 min.” value is on record as 42%.

Take `CCCC[C@H](O)[C@H](O)/C=C/[C@H]1[C@H](O)CC(=O)[C@@H]1C/C=C\CCCC(=O)O` (relative stereo) [dl-erythro-9-oxo-11α,15,16-trihydroxy-5-cis,13-trans-prostadienoic acid]: the ED50 stood at 0.0098 mg/kg in assay [2], 0.013 mg/kg in assay [5] and 0.024 mg/kg in assay [3]. Moreover, the “% Inhibition of Total Acid Output After 60 min.” value in assay [6] (5 mg./kg.) was found to be 86%; in assay [1] (10 mg./kg.), 98%. The “% Inhibition of Total Acid Output After 120 min.” value in assay [6] (5 mg./kg.) stood at 89%; in assay [1] (10 mg./kg.), 55%. The inhibition in vivo at 0.1 mg/kg in assay [4] (0.1 mg./kg.) came out at 6%.

As to `CCCC[C@@H](O)[C@@H](O)/C=C/[C@H]1[C@H](O)CC(=O)[C@@H]1C/C=C\CCCC(=O)O` (relative stereo) [dl-erythro-9-oxo-11α,15-epi,16-trihydroxy-5-cis,13-trans-prostadienoic acid], the figures for the ED50 in assay [5] and in assay [3] were 2.43 mg/kg and 1.28 mg/kg, respectively. Further, the results for the “% Inhibition of Total Acid Output After 60 min.” value in assay [6] (10 mg./kg.) and in assay [1] (10 mg./kg.) were 66% and 100%, respectively. Also, the “% Inhibition of Total Acid Output After 120 min.” value is on record as 65% in assay [6] (10 mg./kg.) and 82% in assay [1] (10 mg./kg.). The inhibition in vivo at 2 mg/kg in assay [4] (2.0 mg./kg.) is 57%.

On to `CCCC[C@@H](OC)[C@@H](O)/C=C/[C@H]1[C@H](O)CC(=O)[C@@H]1C/C=C\CCCC(=O)O` (relative stereo) [dl-erythro-9-oxo-11α,15-epi-15-hydroxy-16-methoxy-5-cis,13-trans-prostadienoic acid], for which the inhibition in vivo at 1.9 mg/kg in assay [4] worked out at 19%.

With `CCCC[C@@H](O)[C@@H](O)/C=C/[C@H]1C=CC(=O)[C@@H]1C/C=C\CCCC(=O)O` (relative stereo) [dl-erythro-9-oxo-15-epi, 16-dihydroxy-5-cis,10,13-trans-prostatrienoic acid], in assay [4], the inhibition in vivo at 2.1 mg/kg worked out at 54%.

Take `CCCC[C@@H](OC)[C@@H](O)/C=C/[C@H]1CCC(=O)[C@@H]1CCCCCCC(=O)O` (relative stereo) [dl-erythro-9-oxo-15-epi-hydroxy-16-methoxy-13-trans-prostenoic acid]: the figures for the ED50 in assay [2], in assay [5] and in assay [3] were more than 3.2 mg/kg, more than 3.2 mg/kg and 7.99 mg/kg, respectively. For the same compound, the inhibition in vivo at 2.4 mg/kg in assay [4] was determined as 18%.

As for `CCCC[C@@H](O)[C@@H](O)/C=C/[C@@H]1[C@@H](C/C=C\CCCC(=O)O)[C@@H](O)C[C@H]1O` (relative stereo) [dl-erythro-9α,11α,15-epi,16-tetrahydroxy-5-cis,13-trans-prostadienoic acid], the inhibition in vivo at 2.2 mg/kg in assay [4] (2.2 mg./kg.) was 20%.
